Experimental data from PubChem BioAssay (NCI).
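Growth conditions: 96-well plates. Treatment: test compound, 48 hours, 5 concentrations. Analysis: linear interpolation between bracketing concentrations; unreached endpoints set to highest concentration. TGI: total growth inhibition.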

Tests used:
Test in all cases: NCI anticancer screen, dose series, 48 h
OVCAR-8 ovarian = system: OVCAR-8 ovarian
SK-MEL-28 melanoma = system: SK-MEL-28 melanoma
IGROV1 ovarian = system: IGROV1 ovarian
UACC-62 melanoma = system: UACC-62 melanoma
MCF7 breast = system: MCF7 breast
MDA-MB-435 = system: MDA-MB-435
NCI-H226 lung = system: NCI-H226 lung
NCI/ADR-RES ovarian = system: NCI/ADR-RES ovarian
NCI-H23 lung = system: NCI-H23 lung
SN12C renal = system: SN12C renal
U251 CNS = system: U251 CNS
MDA-MB-231 breast = system: MDA-MB-231 breast
BT-549 breast = system: BT-549 breast
OVCAR-3 ovarian = system: OVCAR-3 ovarian
T-47D breast = system: T-47D breast
OVCAR-4 ovarian = system: OVCAR-4 ovarian
SF-539 CNS = system: SF-539 CNS
TK-10 renal = system: TK-10 renal
SNB-75 CNS = system: SNB-75 CNS
A498 renal = system: A498 renal

| SMILES | TGI (OVCAR-8 ovarian) [µM] | TGI (SK-MEL-28 melanoma) [µM] | TGI (IGROV1 ovarian) [µM] | TGI (UACC-62 melanoma) [µM] | TGI (MCF7 breast) [µM] | TGI (MDA-MB-435) [µM] | TGI (NCI-H226 lung) [µM] | TGI (NCI/ADR-RES ovarian) [µM] | TGI (NCI-H23 lung) [µM] | TGI (SN12C renal) [µM] | TGI (U251 CNS) [µM] | TGI (MDA-MB-231 breast) [µM] | TGI (BT-549 breast) [µM] | TGI (OVCAR-3 ovarian) [µM] | TGI (T-47D breast) [µM] | TGI (OVCAR-4 ovarian) [µM] | TGI (SF-539 CNS) [µM] | TGI (TK-10 renal) [µM] | TGI (SNB-75 CNS) [µM] | TGI (A498 renal) [µM] |
| --- | --- | --- | --- | --- | --- | --- | --- | --- | --- | --- | --- | --- | --- | --- | --- | --- | --- | --- | --- | --- |
| NC(N)=NS(=O)(=O)c1ccc(Nc2c3ccccc3nc3ccc(C(=O)Nc4ccc(S(N)(=O)=O)cc4)cc23)cc1 | > 100 | > 100 | > 100 | > 100 | > 100 | > 100 | > 100 | > 100 | > 100 | > 100 | > 100 | > 100 | > 100 | > 100 | > 100 | > 100 | > 100 | > 100 | > 100 | – |
| OCC1C(O)C(O)[C@@H]2SCCN12 (stereo partly specified) | > 100 | > 100 | > 100 | > 100 | – | > 100 | > 100 | > 100 | > 100 | – | > 100 | > 100 | > 100 | > 100 | > 100 | > 100 | – | > 100 | > 100 | > 100 |
| COc1cc(/C=C2/C[C@H]3[C@@H]4CCC5=CC(=O)CC[C@]5(C)[C@H]4CC[C@]3(C)NC2=O)cc(OC)c1OC | 70.7 | > 100 | 94.7 | > 100 | 88.9 | > 100 | > 100 | > 100 | 57.3 | > 100 | 57.1 | 83.2 | 53.7 | > 100 | 63 | > 100 | – | 56.2 | > 100 | 41.6 |
| CN(C)S(=O)(=O)n1ccnc1 | – | > 100 | > 100 | – | > 100 | > 100 | > 100 | > 100 | > 100 | > 100 | > 100 | > 100 | > 100 | > 100 | > 100 | > 100 | > 100 | > 100 | > 100 | > 100 |
| C[C@]1(O)CC(=O)c2c(c(-c3ccc4cc5c(c(O)c4c3O)C(=O)C[C@@](C)(O)C5)c3cccc(O)c3c2O)C1 | 18.5 | 23.2 | 22.8 | 27 | > 100 | 41 | 21.9 | 25.4 | 12.9 | 15.8 | 12.3 | 19.3 | 18.6 | 17.2 | 14.4 | 21.1 | 6.45 | 28 | 19.3 | 16.4 |
| CCOP(=O)(OCC)/C(=C/c1ccccc1)CC(C)=O | > 100 | > 100 | > 100 | > 100 | > 100 | > 100 | > 100 | > 100 | > 100 | > 100 | > 100 | > 100 | > 100 | > 100 | > 100 | > 100 | > 100 | > 100 | > 100 | > 100 |
| Brc1ccc(-c2ccc(-c3ccc(-c4ccc(Br)s4)s3)s2)s1 | > 100 | > 100 | > 100 | > 100 | > 100 | > 100 | > 100 | > 100 | > 100 | > 100 | > 100 | > 100 | > 100 | > 100 | > 100 | > 100 | > 100 | > 100 | > 100 | > 100 |
| CC(C)(C)C1CCC2c3c([nH]c4ccccc34)C3C(=O)N(c4cccc(Cl)c4)C(=O)C3C2C1 (stereo unspecified) | > 55.6 | 32 | 45.7 | 33.4 | 4.22 | 48.9 | 39.9 | 34 | 25.3 | 15.6 | 38.4 | 29.6 | 41.1 | 33.3 | 48.7 | 58.1 | 35.5 | 39 | 50.1 | 53.7 |
| CNC(=S)NNC1=NCCCN1 | > 100 | > 100 | > 100 | > 100 | > 100 | > 100 | > 100 | > 100 | > 100 | – | > 100 | > 100 | > 100 | > 100 | > 100 | > 100 | > 100 | > 100 | > 100 | > 100 |
| CCOC(=O)C(Cc1ccc(OC(=O)c2ccc(OC)cc2OC)cc1)NC(=O)C(F)(F)F (stereo unspecified) | 51 | – | 41.8 | 30.5 | 47.4 | 34.9 | > 100 | 79.4 | 45.1 | > 100 | > 100 | > 100 | > 100 | 36.9 | 61.6 | 55.8 | 54.4 | 42.7 | 33.1 | 31.6 |
| COc1cccc2c3cccc(OC)c3c3[nH]cnc3c12 | – | 9.53 | 3.46 | 30.3 | 2.81 | 4.1 | 32.7 | 9.42 | 3.37 | 22.3 | 3.03 | 4.11 | 31.6 | 31.7 | 40.2 | 12 | 2.68 | 3.91 | 8.58 | 33.4 |
| CC(C)Cc1ccc(C(C)/C=C2\CCC(CN3CCOCC3)C2=O)cc1 (stereo unspecified) | 12.3 | 22.8 | 19.8 | 25.6 | 19.9 | 20.2 | 35.5 | 29.3 | 29.4 | 21.5 | 27.7 | 4.2 | 35.2 | 9.95 | – | 33.4 | 19.8 | 14.9 | 22.1 | 27 |
| CCOC(=O)CC/C(C)=N\n1c(Cc2ccc(Cl)cc2)n[nH]c1=O | > 100 | > 100 | > 100 | > 100 | > 100 | > 100 | > 100 | > 100 | > 100 | > 100 | > 100 | > 100 | > 100 | > 100 | > 100 | – | > 100 | > 100 | > 100 | – |
| CC(=O)O[C@@]12[C@@H]3O[C@@]4(O)C[C@]5(C)[C@H]6C[C@@](C(C)C)(O[C@H]5c5ccoc5)O[C@H]1[C@]6(C4)O[C@]2(O)C(C)=CC3(C)C | > 100 | > 100 | > 100 | > 100 | > 100 | > 100 | > 100 | > 100 | > 100 | > 100 | > 100 | > 100 | > 100 | > 100 | > 100 | > 100 | > 100 | > 100 | > 100 | – |
| Cn1c(=O)c2[nH]c(/N=N\n3ccc4ccccc43)nc2n(C)c1=O | > 100 | > 100 | – | > 100 | – | > 100 | > 100 | > 100 | > 100 | > 100 | > 100 | > 100 | > 100 | > 100 | > 100 | > 100 | > 100 | > 100 | > 100 | > 100 |
| NC(=S)SC1=NNC2(C(=O)N1)c1ccccc1-c1ccccc12 | > 10 | > 10 | > 10 | > 10 | > 10 | > 10 | > 10 | > 10 | > 10 | > 10 | – | > 10 | > 10 | – | > 10 | > 10 | > 10 | > 10 | > 10 | – |
| Nc1nc(N)nc(-c2cnc3ccccc3c2)n1 | > 100 | > 100 | > 100 | > 100 | > 100 | > 100 | > 100 | > 100 | > 100 | > 100 | > 100 | > 100 | > 100 | > 100 | > 100 | – | > 100 | > 100 | > 100 | > 100 |
| COc1cccc(N=N/C(=N/NC(=O)c2cc(Cl)ccc2O)c2ccc(N(CCC#N)CCC#N)cc2C)c1 | 55.3 | – | > 100 | > 100 | 79.1 | > 100 | > 100 | > 100 | > 100 | > 100 | > 100 | > 100 | > 100 | 6.48 | 58.4 | > 100 | > 100 | > 100 | > 100 | > 100 |
| Nc1ccc(S(=O)(=O)Nc2nc3ccccc3nc2Nc2ccc(S(N)(=O)=O)cc2)cc1 | > 100 | > 100 | > 100 | > 100 | > 100 | > 100 | > 100 | > 100 | 48 | > 100 | > 100 | > 100 | 62.1 | > 100 | > 100 | 49.7 | > 100 | > 100 | 69.6 | – |
| COc1cc(O)c2c(=O)c3ccccc3n(C)c2c1 | > 100 | > 100 | > 100 | > 100 | > 100 | > 100 | > 100 | > 100 | > 100 | > 100 | > 100 | > 100 | > 100 | > 100 | > 100 | > 100 | > 100 | > 100 | – | > 100 |
| CCOC(=O)CCC(NC(=O)N1CCN(c2c(C)nc(C)[nH]c2=O)CC1)C(=O)OCC (stereo unspecified) | > 100 | > 100 | > 100 | > 100 | > 100 | > 100 | > 100 | > 100 | > 100 | > 100 | > 100 | > 100 | > 100 | > 100 | > 100 | > 100 | > 100 | > 100 | – | > 100 |
| NNC(=O)CC(=O)Nc1ccc(C(=O)O)cc1 | > 100 | – | > 100 | > 100 | > 100 | > 100 | > 100 | > 100 | > 100 | > 100 | > 100 | > 100 | > 100 | > 100 | > 100 | > 100 | > 100 | > 100 | > 100 | – |
| COc1cc(/C=C2\N=C(c3ccccc3)N(c3nc4c(Cl)cc(Cl)cc4s3)C2=O)ccc1O | > 100 | > 100 | > 100 | > 100 | > 100 | > 100 | – | > 100 | – | 51.4 | 75.4 | > 100 | 77.4 | 91.9 | 72.6 | > 100 | > 100 | > 100 | 75 | 49 |
| N#Cc1cc2c(n(C3OC(CO)C(O)C(O)C3O)c1=S)CCCCC2 (stereo unspecified) | > 100 | > 100 | > 100 | > 100 | > 100 | > 100 | > 100 | > 100 | > 100 | > 100 | > 100 | > 100 | > 100 | > 100 | – | > 100 | > 100 | > 100 | > 100 | > 100 |
